Experimental findings from PubChem BioAssay (NCI) are described below.

SMILES strings stand for the structures.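 Where inhibition never reached the appropriate level, the endpoint shown equals the highest concentration tested. Otherwise, values were interpolated linearly from a five-concentration, 48-hour dose response in 96-well plates. GI50 = concentration required for 50% inhibition of growth. TGI: total growth inhibition.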 A value given as a limit tells only on which side of the number the result lay.

Some test systems named below: SNB-19 CNS; OVCAR-3 ovarian; RPMI-8226 leukemia; HCC-2998 colon; DU-145 prostate; OVCAR-4 ovarian; UACC-62 melanoma; NCI/ADR-RES ovarian; A498 renal; SW-620 colon.
Assay in all cases: NCI-60 cell line screen, 48 h

For the molecule `C=CC(=O)N1CC2(CC(n3nc(-c4ccc5c(cnn5C)c4)c(-c4c(Cl)c(C)cc5[nH]ncc45)c3C)C2)C1`, the GI50 with SNB-19 CNS is 3.43 µM; in the experiment on OVCAR-3 ovarian, 1.98 µM; in the experiment with RPMI-8226 leukemia, 2.13 µM; in the experiment on HCC-2998 colon, 1.85 µM; with DU-145 prostate, 3.11 µM; in the experiment on OVCAR-4 ovarian, 3.52 µM. Moreover, the GI50 is 1.94 µM in the experiment on UACC-62 melanoma, 2.23 µM in the experiment with NCI/ADR-RES ovarian, 3.99 µM in the experiment on A498 renal and 3.23 µM in the experiment with SW-620 colon. For the same molecule, the TGI was found to be 13.5 µM in the experiment on SNB-19 CNS; 4.18 µM in the experiment on OVCAR-3 ovarian; 6.72 µM in the experiment with RPMI-8226 leukemia; 3.36 µM in the experiment on HCC-2998 colon; 9.45 µM in the experiment on DU-145 prostate; 14.8 µM in the experiment on OVCAR-4 ovarian. The TGI in the experiment on UACC-62 melanoma came to 4.04 µM; in the experiment on NCI/ADR-RES ovarian, 5.21 µM; in the experiment with A498 renal, 13.3 µM; with SW-620 colon, 10.3 µM.

As to `O=C(Nc1nc2ccccc2s1)Nc1ccc([N+](=O)[O-])cc1Cl`, the GI50 in the experiment with SNB-19 CNS was 8.2 µM; with OVCAR-3 ovarian it was 3.05 µM; with RPMI-8226 leukemia, 2.19 µM; in the experiment on HCC-2998 colon, 5.65 µM; with DU-145 prostate it was 3.08 µM; with OVCAR-4 ovarian, 1.86 µM. The GI50 is 3.1 µM with UACC-62 melanoma, 2.99 µM with NCI/ADR-RES ovarian, 5.15 µM with A498 renal and 2.86 µM in the experiment on SW-620 colon. Moreover, the TGI with SNB-19 CNS is 26.7 µM; with OVCAR-3 ovarian, 8.17 µM; in the experiment with RPMI-8226 leukemia, more than 21 µM; in the experiment with HCC-2998 colon it was 25 µM; with DU-145 prostate it was 7.74 µM; with OVCAR-4 ovarian, 3.68 µM. The TGI came out at 8.94 µM in the experiment with UACC-62 melanoma, 9.93 µM in the experiment with NCI/ADR-RES ovarian, 12.5 µM in the experiment with A498 renal and 7.82 µM in the experiment on SW-620 colon.

With `CC(=O)[O][Hg][c]1c(C)c(C)cc(C)c1C`, the GI50 is 1.7 µM in the experiment on SNB-19 CNS; 1.36 µM in the experiment with OVCAR-3 ovarian; 1.6 µM in the experiment on RPMI-8226 leukemia; 1.37 µM in the experiment on HCC-2998 colon; 1.86 µM in the experiment with DU-145 prostate; 0.566 µM with OVCAR-4 ovarian. For the same molecule, the GI50 is 1.69 µM with UACC-62 melanoma, 2.96 µM in the experiment with NCI/ADR-RES ovarian, 2.09 µM with A498 renal and 0.732 µM with SW-620 colon. The TGI is 3.76 µM in the experiment with SNB-19 CNS; 2.71 µM with OVCAR-3 ovarian; 6.11 µM with RPMI-8226 leukemia; 2.72 µM in the experiment on HCC-2998 colon; 4.62 µM in the experiment on DU-145 prostate; 1.37 µM in the experiment on OVCAR-4 ovarian. The TGI in the experiment on UACC-62 melanoma amounted to 4.59 µM; in the experiment on NCI/ADR-RES ovarian, 9.14 µM; in the experiment on A498 renal, 4.38 µM; with SW-620 colon, 2.31 µM.

On to `COc1ccc(/C(C#N)=C2C=C/C(=N/O)c3ccccc3\2)cc1`, for which the GI50 was 2.8 µM in the experiment with SNB-19 CNS; 0.314 µM in the experiment on OVCAR-3 ovarian; 0.371 µM with RPMI-8226 leukemia; 0.346 µM with HCC-2998 colon; 0.34 µM in the experiment on DU-145 prostate; 0.927 µM with OVCAR-4 ovarian. Further, the GI50 was 0.48 µM in the experiment with UACC-62 melanoma, 0.125 µM with NCI/ADR-RES ovarian, 2.21 µM with A498 renal and 0.262 µM in the experiment with SW-620 colon. Moreover, the TGI in the experiment with SNB-19 CNS came out at 29.6 µM; with OVCAR-3 ovarian, 2.79 µM; with RPMI-8226 leukemia it was 9.76 µM; with HCC-2998 colon, 1.44 µM; in the experiment with DU-145 prostate, 8.85 µM; in the experiment with OVCAR-4 ovarian it was 39.1 µM. Further, the TGI in the experiment with UACC-62 melanoma was 7.47 µM; in the experiment on NCI/ADR-RES ovarian, 2.94 µM; with A498 renal, 6.75 µM; with SW-620 colon it was 14.4 µM.

`NC(=S)c1c(N)n(C2OC(CO)C(O)C2O)c2ncnc(N)c12` (centres undefined): the GI50 in the experiment with SNB-19 CNS was 0.962 µM; in the experiment on OVCAR-3 ovarian, 0.287 µM; in the experiment with RPMI-8226 leukemia, 0.511 µM; with HCC-2998 colon it was 0.204 µM; with DU-145 prostate, 0.278 µM; in the experiment on OVCAR-4 ovarian, 0.264 µM. Besides, the GI50 in the experiment with UACC-62 melanoma is 0.263 µM; in the experiment on NCI/ADR-RES ovarian, 0.276 µM; with A498 renal it was 0.211 µM; with SW-620 colon, 0.177 µM. Further, the TGI is more than 100 µM in the experiment on SNB-19 CNS; 1.2 µM with OVCAR-3 ovarian; 3.05 µM in the experiment on RPMI-8226 leukemia; 0.801 µM with HCC-2998 colon; more than 100 µM in the experiment on DU-145 prostate; more than 100 µM with OVCAR-4 ovarian. Also, the TGI with UACC-62 melanoma was 1.37 µM; in the experiment with NCI/ADR-RES ovarian it was 1.27 µM; in the experiment with A498 renal, 0.522 µM; in the experiment on SW-620 colon, 0.836 µM.

Take `CCc1nc(N)nc(N)c1-c1ccc(N2CCNCC2)cc1`: the TGI with SNB-19 CNS is more than 93.3 µM; in the experiment on OVCAR-3 ovarian, more than 100 µM; with RPMI-8226 leukemia, more than 90.5 µM; with HCC-2998 colon, more than 100 µM; in the experiment on DU-145 prostate, more than 100 µM; in the experiment on OVCAR-4 ovarian, more than 100 µM. The TGI with UACC-62 melanoma, with NCI/ADR-RES ovarian, in the experiment on A498 renal and with SW-620 colon was more than 100 µM throughout.

As for `CN(Cc1cnc2nc(N)nc(N)c2n1)c1ccc(C(=O)NC(CCC(=O)O)C(=O)O)cc1Br` (centres undefined), the GI50 is less than 0.01 µM in the experiment with SNB-19 CNS; less than 0.01 µM in the experiment with OVCAR-3 ovarian; less than 0.01 µM in the experiment on RPMI-8226 leukemia; less than 0.01 µM with HCC-2998 colon; less than 0.01 µM with DU-145 prostate; 13.7 µM in the experiment with OVCAR-4 ovarian. Also, the GI50 in the experiment on UACC-62 melanoma, with NCI/ADR-RES ovarian, with A498 renal and in the experiment on SW-620 colon was less than 0.01 µM throughout. Moreover, the TGI in the experiment on SNB-19 CNS is more than 100 µM; in the experiment on OVCAR-3 ovarian it was 4.43 µM; with RPMI-8226 leukemia, more than 100 µM; in the experiment with DU-145 prostate it was more than 100 µM; in the experiment with OVCAR-4 ovarian, more than 100 µM; in the experiment on UACC-62 melanoma it was 7.35 µM. Besides, the TGI in the experiment on NCI/ADR-RES ovarian is more than 100 µM; in the experiment with A498 renal, 4.71 µM; with SW-620 colon it was more than 83.9 µM.

In the case of `O=C(CN1C(=O)S/C(=C\C(Cl)=C\c2ccccc2)C1=O)NC1C=CS(=O)(=O)C1` (centres undefined), the GI50 in the experiment with SNB-19 CNS was 2.76 µM; in the experiment on OVCAR-3 ovarian, 0.729 µM; in the experiment on RPMI-8226 leukemia it was 0.477 µM; in the experiment with HCC-2998 colon it was 1.95 µM; with DU-145 prostate it was 1.83 µM; in the experiment with OVCAR-4 ovarian, 2.27 µM. In addition, the GI50 in the experiment on UACC-62 melanoma is 1.13 µM; in the experiment with NCI/ADR-RES ovarian, 1.99 µM; in the experiment on A498 renal, 1.42 µM; in the experiment on SW-620 colon, 0.553 µM. Besides, the TGI with SNB-19 CNS was 11.5 µM; with OVCAR-3 ovarian, 2.33 µM; with RPMI-8226 leukemia, 4.33 µM; in the experiment on HCC-2998 colon, 3.75 µM; in the experiment on DU-145 prostate, 4.27 µM; in the experiment with OVCAR-4 ovarian, 17.4 µM. Further, the TGI is 3.16 µM in the experiment on UACC-62 melanoma, more than 100 µM with NCI/ADR-RES ovarian, 4 µM in the experiment on A498 renal and 2.86 µM in the experiment on SW-620 colon.
